From US12552783B2, “Modulators of proteolysis and associated methods of use” (Arvinas Operations, Inc., priority 2018, dated 2026)

Target: KRas (Homo sapiens, UniProt P01116, G12C)
Experiment: KRas degradation in H2030 cells by Western blot (data of Table 5)
Type: cell-based
Set-up: host or cells: NCI-H2030
Conditions: H2030 cells serum starved 24 hours, KRas immunoblot; for H2030 Degradation at 0.3 uM: treated 24 hours with 0.3 uM; for H2030 Degradation at 1 uM: treated 24 hours with 1 uM; for H2030 Degradation at 3 uM: treated 24 hours with 3 uM
Protocol: Cell Lines, Antibodies, and Reagents. NCI-H2030 (CRL-5914) and SW1573 (CRL-2170) cells were purchased from ATCC. Both cell lines are homozygous for the G12C mutation in KRas. NCI-H2030 cells were cultured in RPMI-1640 medium containing 1% penicillin-streptomycin and 10% fetal bovine serum (FBS). SW1573 cells were cultured in DMEM containing 1% penicillin-streptomycin and 10% FBS. The KRas detection antibody (Cat. No. LS-C175665) was purchased from LifeSpan Biosciences and was used at a dilution of 1:2000. GAPDH was detected using an antibody purchased from Cell Signaling Technology (Cat. No. 5174) and was diluted 1:3000. Secondary anti-mouse and anti-rabbit detection antibodies were purchased from Cell Signaling Technology (Cat. Nos. 7076 and 7074, respectively).
Compound Treatment and Western Blotting of the Data of Table 5. H2030 cells in 12-well plates were serum starved for 24 hours, and then treated with 0.3 uM, 1 uM, and 3 uM of the indicated bifunctional compound, for 24 hours. Cells were lysed in a Cell Signaling Technology Cell Lysis Buffer (Cat. No. #9803) supplemented with protease inhibitors, and proteins were separated by SDS-PAGE. KRas was detected by immunoblotting using the LSBio antibody (Cat. No. LS-C175665).
DC50 is the half-maximal degradation concentration—i.e., the concentration at which 50% degradation is observed. DMax is the maximum degradation efficacy is achieved—i.e., the maximal degradation observed) degradation data.

| H2030 Degradation at 0.3 uM | H2030 Degradation at 1 uM | H2030 Degradation at 3 uM | SMILES |
| --- | --- | --- | --- |
| C (C < 25) | B (25 ≤ B < 50) | B (25 ≤ B < 50) | C=CC(=O)N1CCN(c2nc(NCCC(=O)N(C)CCOCCOCCOCC(=O)N[C@H](C(=O)N3C[C@H](O)C[C@H]3C(=O)N[C@@H](C)c3ccc(-c4scnc4C)cc3)C(C)(C)C)nc3c(F)c(-c4cc(O)cc5ccccc45)c(Cl)cc23)CC1 [compound 4, (2S,4R)-1-((2S)-18-((4-(4-acryloylpiperazin-1-yl)-6-chloro-8-fluoro-7-(3-hydroxynaphthalen-1-yl)quinazolin-2-yl)amino)-2-(tert-butyl)-15-methyl-4,16-dioxo-6,9,12-trioxa-3,15-diazaoctadecanoyl)-4-hydroxy-N-((S)-1-(4-(4-methylthiazol-5-yl)phenyl)ethyl) pyrrolidine-2-carboxamide] |
| C (C < 25) | C (C < 25) | C (C < 25) | CCC(=O)N1CCN(c2nc(NCCC(=O)N(C)CCOCCOCCOCC(=O)N[C@H](C(=O)N3C[C@H](O)C[C@H]3C(=O)N[C@@H](C)c3ccc(-c4scnc4C)cc3)C(C)(C)C)nc3c(F)c(-c4cc(O)cc5ccccc45)c(Cl)cc23)CC1 [compound 9, (2S,4R)-1-((S)-2-(tert-butyl)-18-((6-chloro-8-fluoro-7-(3-hydroxynaphthalen-1-yl)-4-(4-propionylpiperazin-1-yl)-5H-312-quinazolin-2-yl)amino)-15-methyl-4,16-dioxo-6,9,12-trioxa-3,15-diazaoctadecanoyl)-4-hydroxy-N-((S)-1-(4-(4-methyl-312-thiazol-5-yl)phenyl)ethyl) pyrrolidine-2-carboxamide] |
| C (C < 25) | C (C < 25) | C (C < 25) | CCC(=O)N1CCN(c2nc(NCCC(=O)N(C)CCOCCOCCOCCOCC(=O)N[C@H](C(=O)N3C[C@H](O)C[C@H]3C(=O)N[C@@H](C)c3ccc(-c4scnc4C)cc3)C(C)(C)C)nc3c(F)c(-c4cc(O)cc5ccccc45)c(Cl)cc23)CC1 [compound 6, (2S,4R)-1-((2S)-2-(tert-butyl)-21-((6-chloro-8-fluoro-7-(3-hydroxynaphthalen-1-yl)-4-(4-propionylpiperazin-1-yl)quinazolin-2-yl)amino)-18-methyl-4,19-dioxo-6,9,12,15-tetraoxa-3,18-diazahenicosanoyl)-4-hydroxy-N-((S)-1-(4-(4-methylthiazol-5-yl)phenyl)ethyl) pyrrolidine-2-carboxamide] |
| C (C < 25) | A (A ≥ 50) | A (A ≥ 50) | C=CC(=O)N1CCN(c2nc(NCCC(=O)N(C)CCOCCOCCOCCOCC(=O)N[C@H](C(=O)N3C[C@H](O)C[C@H]3C(=O)N[C@@H](C)c3ccc(-c4scnc4C)cc3)C(C)(C)C)nc3c(F)c(-c4cc(O)cc5ccccc45)c(Cl)cc23)CC1 [compound 1, (2S,4R)-1-((2S)-21-((4-(4-acryloylpiperazin-1-yl)-6-chloro-8-fluoro-7-(3-hydroxynaphthalen-1-yl)quinazolin-2-yl)amino)-2-(tert-butyl)-18-methyl-4,19-dioxo-6,9,12,15-tetraoxa-3,18-diazahenicosanoyl)-4-hydroxy-N-((S)-1-(4-(4-methylthiazol-5-yl)phenyl)ethyl) pyrrolidine-2-carboxamide] |
| C (C < 25) | A (A ≥ 50) | A (A ≥ 50) | C=CC(=O)N1CCN(c2nc(NCCC(=O)N(C)CCOCCOCCOCCOCCOCC(=O)N[C@H](C(=O)N3C[C@H](O)C[C@H]3C(=O)N[C@@H](C)c3ccc(-c4scnc4C)cc3)C(C)(C)C)nc3c(F)c(-c4cc(O)cc5ccccc45)c(Cl)cc23)CC1 [compound 2, (2S,4R)-1-((2S)-24-((4-(4-acryloylpiperazin-1-yl)-6-chloro-8-fluoro-7-(3-hydroxynaphthalen-1-yl)quinazolin-2-yl)amino)-2-(tert-butyl)-21-methyl-4,22-dioxo-6,9,12,15,18-pentaoxa-3,21-diazatetracosanoyl)-4-hydroxy-N-((S)-1-(4-(4-methylthiazol-5-yl)phenyl)ethyl) pyrrolidine-2-carboxamide] |
| C (C < 25) | C (C < 25) | C (C < 25) | CCC(=O)N1CCN(c2nc(NCCC(=O)N(C)CCOCCOCCOCCNc3cccc4c3C(=O)N(C3CCC(=O)NC3=O)C4=O)nc3c(F)c(-c4cc(O)cc5ccccc45)c(Cl)cc23)CC1 (stereo not drawn) [compound 8, 3-((6-chloro-8-fluoro-7-(3-hydroxynaphthalen-1-yl)-4-(4-propionylpiperazin-1-yl)quinazolin-2-yl)amino)-N-(2-(2-(2-(2-((2-(2,6-dioxopiperidin-3-yl)-1,3-dioxoisoindolin-4-yl)amino)ethoxy)ethoxy)ethoxy)ethyl)-N-methylpropanamide] |
| C (C < 25) | B (25 ≤ B < 50) | B (25 ≤ B < 50) | C=CC(=O)N1CCN(c2nc(NCCC(=O)N(C)CCOCCOCCOCCNc3cccc4c3C(=O)N(C3CCC(=O)NC3=O)C4=O)nc3c(F)c(-c4cc(O)cc5ccccc45)c(Cl)cc23)CC1 (stereo not drawn) [compound 3, 3-((4-(4-acryloylpiperazin-1-yl)-6-chloro-8-fluoro-7-(3-hydroxynaphthalen-1-yl)quinazolin-2-yl)amino)-N-(2-(2-(2-(2-((2-(2,6-dioxopiperidin-3-yl)-1,3-dioxoisoindolin-4-yl)amino)ethoxy)ethoxy)ethoxy)ethyl)-N-methylpropanamide] |
| C (C < 25) | B (25 ≤ B < 50) | B (25 ≤ B < 50) | C=CC(=O)N1CCN(c2nc(NCCC(=O)N(C)CCOCCOCCOCCOCCOc3ccc4c(c3)CN(C3CCC(=O)NC3=O)C4=O)nc3c(F)c(-c4cc(O)cc5ccccc45)c(Cl)cc23)CC1 (stereo not drawn) [compound 5, 3-((4-(4-acryloylpiperazin-1-yl)-6-chloro-8-fluoro-7-(3-hydroxynaphthalen-1-yl)quinazolin-2-yl)amino)-N-(14-((2-(2,6-dioxopiperidin-3-yl)-1-oxoisoindolin-5-yl)oxy)-3,6,9,12-tetraoxatetradecyl)-N-methylpropanamide] |
